Test results taken from patent US10450314B2, “Pteridine derivatives as modulators of ROR gamma” (Boehringer Ingelheim International GmbH, priority 2015, dated 2019).

Tests used:
RORγ = target: T1, RORγ (Homo sapiens, UniProt P51449); assay: RORγ Reporter Gene Assay (RGA), luciferase transactivation in transiently transfected HEK 293 cells; type: cell-based; settings: HEK 293 cells cotransfected with pGL4.3 luc2P/GAL4UAS and pBIND Gal4DBD hRORC LBD; 20-24 h incubation
T1 construct: expressed in transfected cells; host or cells: HEK 293 cells, transiently cotransfected with pGL4.3 luc2P/GAL4UAS/Hygro reporter
T1 sequence (P51449 269-508 limits assumed): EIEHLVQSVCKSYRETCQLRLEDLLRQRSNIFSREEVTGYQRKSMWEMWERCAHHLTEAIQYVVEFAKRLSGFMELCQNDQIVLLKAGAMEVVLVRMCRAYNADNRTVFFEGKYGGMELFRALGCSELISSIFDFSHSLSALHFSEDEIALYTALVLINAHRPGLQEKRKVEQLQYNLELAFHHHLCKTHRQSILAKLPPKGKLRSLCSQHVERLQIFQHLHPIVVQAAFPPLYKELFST
Description: Reporter Gene Assay (RGA)
A nuclear receptor transactivation assay is performed to quantitate the ability of test compounds to inhibit RORγ transactivation of a luciferase reporter. A similar assay is described in: Khan et al., Bioorganic & Medicinal Chemistry Letters 23 (2013), 532-536. The system uses transiently transfected HEK 293 cells cotransfected with two plasmids (pGL4.3, luc2P/GAL4UAS/Hygro, and pBIND, Gal4DBD hRORC LBD1-3). The positive control is co-transiently transfected with both plasmids, and the negative control contains the pGL4.3 promoter sequence. Assays are assembled in 384 well plates where transiently transfected cells and test compound at varying concentrations are incubated for 20-24 h. The next day, assays plates are taken out and equilibrated at RT for 20-30 minutes. Bright-Glo™ Luciferase Assay System is used to detect Luciferase production. After addition of Bright GLO detection reagent, the plates are incubated at RT for 20 minutes. The plates are read on an Envision plate reader to measure luminescence signal. The RLU signal is converted to POC relative to control and blank wells.
Compound Dilution Buffer:
Bright Glo Luciferase Assay System: Promega #E2620
Thaw lysis buffer provided in kit, add 100 mL lysis buffer to substrate powder.

[1] = Human liver microsome (HLM) metabolic stability assay; type: in vitro ADME; settings: human liver microsomes, 1 uM compound, 37° C., 60 min; % hepatic blood flow
Description: Assessment of Metabolic Stability
The 5 time point, high-throughput human liver microsome (HLM) metabolic stability assay is designed to determine in vitro compound metabolism. Compounds are incubated with HLMs at a concentration of 1 uM, at 37° C., for a total of 60 min. The percent of compound remaining at 5, 15, 30, and 60 min is used to calculate the t1/2 (min), CLint (mL/min/kg), CLh (mL/min/kg), and % Qh. The assay is based on a 96-well format and can accommodate up to 92 compounds per plate (n=1).
Using the 96-well multi-channel head, the Biomek FX, equipped with a Peltier heating block/shaker, is programmed to accomplish the following steps: • 1. Pipette 175 uL of 1.15 mg/mL microsomes into each of the 96 conical inserts (Analytical Sales and Products, catalog number 96PL05) that fit into the plate of the Peltier heating block/shaker (the incubation plate) • 2. Add 5 uL of compounds from the assay plate to the microsomes and shake the mixture at 600 rpm at 42.1° C. for 10 min (a setting of 42.1° C. on the Peltier is required for the samples to incubate at 37° C.) • 3. After 10 min, prompt the user to add the NADPH plate to the deck and add 20 uL from the NADPH plate to the incubation plate to start the reaction • 4. Add 215 uL of 100%, cold acetonitrile containing an internal standard(s) to a 0 minute, 5 minute, 15 minute, 30 minute, and 60 minute “quench” plate • 5. At 0 min, 5 min, 15 min, 30 min, and 60 min into the incubation, aspirate 12 uL from the incubation mixture and add it to the quench solution to stop the reaction • 6. Add 185 uL HPLC grade water to each well of the 0, 5, 15, 30 and 60 minute quench plates to dilute compounds to the appropriate concentration for the mass spectrometer
After all time points are collected, the quench plates are sealed with 96-well pierceable plate mats or heat sealing foil and centrifuged at 3000 rpm for 15 min to pellet the microsomes.
The plates are analyzed using LC/MS/MS with electron spray ionization (ESI) and the previously determined MRM transitions. The LC method includes the following parameters:
Using an Excel template in Activitybase, the peak areas corresponding to 5, 15, 30 and 60 min are compared to the peak area at 0 min to calculate the percent of remaining compound using the following equation:
Percent compound remaining=(AUC at Time t min/AUC at Time 0 min)×100 where t=0, 5, 15, 30 or 60 min.
Time (min) is plotted against the natural logarithm (Ln) of the percent compound remaining to determine the slope. The slope is used to calculate t1/2 (min) using the equation, t1/2=0.693/slope.
Clint, Intrinsic Clearance

| SMILES | IC50 (RORγ) | HLM (% Qh) [1] |
| --- | --- | --- |
| Cc1ncnc(C2CC2)c1-c1nc(C)c2nc(NCc3cnc(S(C)(=O)=O)cn3)c(=O)n([C@@H](C)C(F)(F)F)c2n1 [Example 37] | 455 nM | <24 % Qh |
| Cc1ncnc(C2CC2)c1-c1nc(C)c2nc(NCc3ccc(S(C)(=N)=O)cn3)c(=O)n([C@@H](C)C3CC3)c2n1 (single isomer, unassigned) [Example 43b] | 400 nM | <24 % Qh |
| CC[C@H](C)n1c(=O)c(NCc2ccc(S(C)(=O)=O)cn2)nc2c(C)nc(-c3c(OC)ncnc3C3CC3)nc21 [Example 13] | 99 nM | <24 % Qh |
| CC[C@H](C)n1c(=O)c(NCc2ccc(S(C)(=N)=O)cc2)nc2c(C)nc(-c3c(C)ncnc3C3CC3)nc21 (some centres unmarked) [Example 84] | 195 nM | 33 % Qh |
| CCS(=O)(=O)c1ccc(CNc2nc3c(C)nc(-c4c(OC)ncnc4C4CC4)nc3n([C@@H](C)C3CC3)c2=O)nc1 [Example 71] | 65 nM | 35 % Qh |
| CC[C@H](C)n1c(=O)c(NCc2ncc(S(=O)(=O)CC)cn2)nc2c(C)nc(-c3c(OC)ncnc3C3CC3)nc21 [Example 15] | 150 nM | <24 % Qh |
| CCS(=O)(=O)c1cnc(CNc2nc3c(C)nc(-c4c(C)ncnc4C4CC4)nc3n([C@@H](C)C(F)(F)F)c2=O)nc1 [Example 23] | 178 nM | <24 % Qh |
| CC[C@H](C)n1c(=O)c(NCc2ccc(S(C)(=O)=O)nc2)nc2c(C)nc(-c3c(C)ncnc3C3CC3)nc21 [Example 12] | 140 nM | <24 % Qh |
| Cc1ncnc(C2CC2)c1-c1nc(C)c2nc(NCc3ccc(S(C)(=O)=O)cn3)c(=O)n([C@@H](C)C3CC3)c2n1 [Example 9] | 70 nM | <24 % Qh |
| Cc1ncnc(C2CC2)c1-c1nc(C)c2nc(NCc3ccc(S(C)(=O)=O)nc3)c(=O)n([C@@H](C)C3CC3)c2n1 [Example 7] | 70 nM | 33 % Qh |
| CC[C@H](C)n1c(=O)c(NCc2ccc(S(N)(=O)=O)cn2)nc2c(C)nc(-c3c(OC)ncnc3C3CC3)nc21 [Example 81] | 185 nM | <24 % Qh |
| CCS(=O)(=O)c1ccc(CNc2nc3c(C)nc(-c4c(OC)ncnc4C4CC4)nc3n([C@@H](C)C(F)(F)F)c2=O)nc1 [Example 88] | 102 nM | 38 % Qh |
| Cc1ncnc(C2CC2)c1-c1nc(C)c2nc(NCc3ccc(S(C)(=O)=O)nc3)c(=O)n([C@@H](C)C(F)(F)F)c2n1 [Example 20] | 175 nM | 29 % Qh |

Other lines, results leading:

| IC50 (RORγ) | HLM (% Qh) [1] | SMILES |
| --- | --- | --- |
| 840 nM | 28 % Qh | Cc1ncnc(C2CC2)c1-c1nc(C)c2nc(NCc3ccc(S(C)(=N)=O)cn3)c(=O)n([C@@H](C)C(F)(F)F)c2n1 (single isomer, unassigned) [Example 106b] |
| 890 nM | <24 % Qh | COc1ncnc(C2CC2)c1-c1nc(C)c2nc(NCc3ccc(S(C)(=N)=O)cn3)c(=O)n([C@@H](C)C(F)(F)F)c2n1 (single isomer, unassigned) [Example 105a] |
| 150 nM | 40 % Qh | COc1ncnc(C2CC2)c1-c1nc(C)c2nc(NCc3ccc(S(N)(=O)=O)cn3)c(=O)n([C@@H](C)C(F)(F)F)c2n1 [Example 95] |
| 1100 nM | <24 % Qh | Cc1ncnc(C2CC2)c1-c1nc(C)c2nc(NCc3ccc(S(N)(=O)=O)nc3)c(=O)n([C@@H](C)C(F)(F)F)c2n1 [Example 98] |
| 225 nM | <24 % Qh | CCS(=O)(=O)c1cnc(CNc2nc3c(C)nc(-c4c(C)ncnc4C4CC4)nc3n(C(C)C(F)F)c2=O)nc1 (centres unmarked) [Example 89] |
| 535 nM | <24 % Qh | CCS(=N)(=O)c1ccc(CNc2nc3c(C)nc(-c4c(C)ncnc4C4CC4)nc3n([C@@H](C)C(F)(F)F)c2=O)nc1 (single isomer, unassigned) [Example 102a] |
